Test results from US6025340A, “Surface expression of enzyme in gene directed prodrug therapy” (priority 1994, dated 2000).

Columns and labels:
[1] = system: MDA MB361 transfected cells (CPG2-expressing line and control line); assay: Sulphorhodamine B cytotoxicity assay; type: cell-based; conditions: 4 days incubation
Protocol: Prodrug 2 was also assayed (FIG. 12) in the MDA MB361 transfected cells obtained in Preparative Example 3 using a sulphorhodamine B cytotoxicity assay which was conducted by plating 5000 cells per well in a 96-well microtitre dish. The cells were plated in 160 μl of DMEM medium. After incubation over night the drug or appropriate controls made up in DMEM containing 5% serum was added to the wells in a 40 μl volume. The cells were incubated for 4 days under standard conditions. Following this the medium was removed and the cells treated with ice-cold 10% TCA (trichloroacetic acid) on ice for about 30 minutes. The TCA was removed and the cells rinsed for adding 18 μl of 0.4% sulphorhodamine B (SRB) which was left to stain the cells for 10 minutes. Following staining the cells were rinsed in TCA and air dried before addition of 18 μl of 10 mM TRIS and cell viability was then read. […] (see FIG. 12)

[2] = system: mixture of NIH3T3 cell lines #3 and #16; assay: Bystander effect, mixed cell lines, [3H]-thymidine incorporation; type: cell-based, murine; conditions: 40% of the cells expressing CPG2(surface)LNLL; 250 μM or 1000 μM CMDA for 60 minutes
Protocol: Cell lines #3 and #16 obtained in Preparative Example 2 were tested for cytotoxicity with the CMDA pro-drug. 1×10^5 cells were plated into each well of 24 well dishes, incubated for 40 hours and then treated with increasing concentrations of CMDA at 37° C. for 60 minutes. After a further 6 hour incubation, 10% of the cells were re-plated into 24 well dishes, incubated for a further 5 days and cell survival was determined by [^3 H]-thymidine incorporation.
The bystander effect was determined by mixing cell lines #3 and #16 obtained in Preparative Example 2 at a variety of concentrations as indicated and a total of 1×10^5 cells were plated per well in 24 well plates. The cells were incubated and treated as described in Example 3, except that they were treated with either 250 μM or 1000 μM CMDA for 60 minutes as indicated. The cell survival was determined as in Example 3.

[3] = system: NIH3T3 cell line #3 constitutively expressing β-galactosidase; assay: Cell survival by [3H]-thymidine incorporation, stable control line; type: cell-based, murine; conditions: increasing concentrations, 60 minutes at 37° C.
Protocol: (§1) Stable cell lines were prepared with NIH3T3 cells to constitutively express CPG2 (surface) LNLL, or as a control the lacZ gene product (β-galactosidase). In order to do this, NIH3T3 cells were transfected with pMCEF-CPG2(surface)LNLL or pMCEFlacZ as described in Comparative Example 1 above, and two days after transfection, the cells were plated at low density into medium containing G418 at 1 mg/ml. Colonies coming from single cells could be observed about two weeks later and these were cloned and grown up individually. The expression of CPG2(surface) was determined by immunoprotein blotting of […] of cell extract (extracted as described in the Comparative Example above) from each of the G418 resistant colonies with the antiserum from the Comparative Example 1 above. The cell line #16 which expresses high levels of CPG2(surface)LNLL (FIG. 6A) and cell line #3, which expresses the β-galactosidase (see below) were selected for further investigation. […] 250 μl of 1 MNa2 CO3 was added to the sample and the OD420 was measured.
(§2) Cell lines #3 and #16 obtained in Preparative Example 2 were tested for cytotoxicity with the CMDA pro-drug. […] After a further 6 hour incubation, 10% of the cells were re-plated into 24 well dishes, incubated for a further 5 days and cell survival was determined by [^3 H]-thymidine incorporation.

[4] = system: NIH3T3 cells transfected with MLVCPG2(surface); assay: Cytotoxicity assay, [3H]-thymidine incorporation, transiently transfected cells; type: cell-based, murine; conditions: CMDA 0.5 mM
Protocol: (§3) The ability of CPG2(surface) to kill NIH3T3 cells in the presence of the CMDA pro-drug was examined. Three sets of NIH3T3 cells were prepared, each of which contained one dish of cells transfected with MLVβplink, one dish of cells transfected with MLVCPG2(surface) or one dish of cells transfected with MLVCPG2(surface)LNLL. The cells were incubated for 42 hours following the transfection and then set 1 was incubated in the presence of prodrug vehicle (5 mM Hepes, 0.5% v/v DMSO, pH7.0; final concentrations) for 24 hours. Set 2 was incubated in the presence of the CMDA prodrug (0.5 mM final concentration) for 3 hours. Set 3 was incubated in CMDA (0.5 mM) for 24 hours. Following prodrug treatment, the cells were washed three times with 5 ml 10% FCS/ DMEM and sets 1 and 3 incubted in fresh medium for a further 24 hours, set 2 for 45 hours. The cells were then passaged into fresh culture dishes, seeded at 1×10^5 cells/ 35 mm dish in 2 ml FCS/ DMEM. After a further 72 hour incubation cell growth was assessed by [3H]-thymidine incorporation.
(§4) For thymidine incorporaion, 1 μCi of [methyl-^3 H]thymidine was added to each well (2 ml medium) and incubated for 5 hours at 37° C. The cells were washed twice with PBSA (4° C.) and fixed with 5% w/v trichloroacetic acid (TCA) in water at 4° C. for 20 minutes. The TCA was removed and the cells washed twice with 2 ml methanol and air dried. The DNA was extracted with 1 ml 0.1 M NaOH, 1% SDS at room temperature for 5 minutes, added to 4 ml scintilation fluid and the incorporated thymidine determined by scintillation counting.

[5] = system: NIH3T3 cells transfected with MLVCPG2(surface)LNLL; assay: as above; type: cell-based, murine; conditions: CMDA 0.5 mM
Protocol: as §3, §4

[6] = system: MDA MB 361 cell line M2 constitutively expressing β-galactosidase; assay: Cell viability by [3H]-thymidine incorporation, stable control line; type: cell-based
Protocol: (§5) CPG2(surface) QQQ was cloned into pMCEF-Plink as an Nco1/Xba fragment; this plasmid is called pMCEFCPG2(surface)QQQ. MDA361B cells were transfected with either pMCEFCPG2(surface)QQQ, or with pMCEFlacZ according to the protocol described in the Comparative Example and were treated as for the NIH3T3 cells to generate G418 colonies. The G418 resistant colonies were tested for CPG2(surface)QQQ expression by immunoprotein blot analysis, as described for the NIH3T3 cells. From these analyses, two cell lines, M2 which expresses β-galactosidase and M38, which expresses CPG2(surface)QQQ were selected for further testing. […] The expression of β-galactosidase by line M2 was confirmed by enzymatic assay (FIG. 10B, lane 1 contains M2 extract, lane 2 a control extract).
These cell lines were tested for sensitivity to the CMDA prodrug and prodrug 2. 1×10^5 cells were plated into each well of a 24 well plate. The cells were incubated for 48 hours at 37° C. […] The viability of the cells was then determined by using [^3 H]-thymidine incorporation.
In order to examine the bystander effect with the MDA MB 361 cells constitutively expressing CPG2(surface)QQQ, the M38 cell line, the M2 cell line, or a 1:10 mixture of M38: M2 cells were plated (1×10^4 cells) into the wells of a 24 well plate, and incubated for 48 hours. […] The survival of the cells was then determined by [^3 H-methyl] thymidine incorporation.

[7] = system: NIH3T3 cell line #16 constitutively expressing CPG2(surface)LNLL; assay: Cell survival by [3H]-thymidine incorporation, stable line; type: cell-based, murine; conditions: Mus musculus, 60 minutes treatment at 37° C., survival after 5 days
Protocol: as §1, §2

[8] = system: MDA MB 361 cell line M38 constitutively expressing CPG2(surface)QQQ; assay: Cell viability by [3H]-thymidine incorporation, stable line; type: cell-based; conditions: for sensitivity to prodrug compared with line M2: 60 minutes at 37° C., viability after 5 days
Protocol: as §5
These cell lines were tested for sensitivity to the CMDA prodrug and prodrug 2. 1×10^5 cells were plated into each well of a 24 well plate. The cells were incubated for 48 hours at 37° C. They were then incubated in increasing concentrations of either CMDA or prodrug 2 for 60 minutes at 37° C., washed twice, returned to medium and incubated for a further 5 days. The viability of the cells was then determined by using [^3 H]-thymidine incorporation.
(§6) In order to examine the bystander effect with the MDA MB 361 cells constitutively expressing CPG2(surface)QQQ, the M38 cell line, the M2 cell line, or a 1:10 mixture of M38: M2 cells were plated (1×10^4 cells) into the wells of a 24 well plate, and incubated for 48 hours. The cells were then treated with varying concentrations of prodrug 2 for 60 min, washed twice with fresh medium and incubated in fresh medium for 5 days. The survival of the cells was then determined by [^3 H-methyl] thymidine incorporation.

[9] = system: NIH3T3 cells transfected with MLVβplink; assay: Cytotoxicity assay, [3H]-thymidine incorporation, transiently transfected control cells; type: cell-based, murine; conditions: CMDA 0.5 mM for 3 hours or 24 hours
Protocol: as §3
For thymidine incorporaion, 1 μCi of [methyl-^3 H]thymidine was added to each well (2 ml medium) and incubated for 5 hours at 37° C. […] The DNA was extracted with 1 ml 0.1 M NaOH, 1% SDS at room temperature for 5 minutes, added to 4 ml scintilation fluid and the incorporated thymidine determined by scintillation counting.

[10] = system: 1:10 mixture of M38:M2 MDA MB 361 cells; assay: Bystander effect, mixed cell lines, [3H]-thymidine incorporation; type: cell-based; conditions: Example 7
Protocol: as §6

Compound	difference in susceptibility, CPG2-expressing line versus control line [1]	cells killed [2]	sensitivity to prodrug (cell survival) [3]	effect of prodrug treatment on cell growth ([4]; 3 hour prodrug treatment)	inhibition at 500 µM ([4]; Mus musculus, NIH3T3, 24 hour prodrug treatment, read-out: inhibition of cell growth)	effect of prodrug treatment on cell growth ([5]; 24 hour prodrug treatment)	inhibition at 500 µM ([5]; Mus musculus, NIH3T3, 3 hour prodrug treatment, read-out: reduction in cell growth)	sensitivity to prodrug ([6]; 60 minutes at 37° C., up to highest concentration tested)	IC50 [7]	sensitivity to prodrug compared with line M2 [8]	effect of prodrug treatment on growth rate [9]	IC50 ([6]; Example 7, 60 min treatment, survival after 5 days)	fold more sensitive, M38 cells versus M2 cells ([8]; Example 5, 1×10^5 cells per well, 60 minutes treatment)	fold change of IC50 in 1:10 mixture versus M2 [10]
[NH2][Pt]([NH2])([Cl])[Cl] [CDDP, Cisplatin]	not found to be any difference	–	–	–	–	–	–	–	–	–	–	–	–	–
CS(=O)(=O)OCCN(CCCl)c1ccc(C(=O)N[C@@H](CCC(=O)O)C(=O)O)cc1 [CMDA, N-4-[(2-chloroethyl)(2-mesyloxyethyl)amino]benzoyl-L-glutamic acid]	–	greater than 80%	not sensitive to even the highest concentration	unaffected	-87%	complete cell death	-20%	did not show any sensitivity	125 µM	more sensitive	minimal effect	–	–	–
O=C(O)CC[C@H](NC(=O)Oc1ccc(N(CCI)CCI)cc1)C(=O)O [prodrug 2, N-(4-[bis(2-iodoethyl)amino]phenoxycarbonyl)-L-glutamic acid]	–	–	–	–	–	–	–	–	–	more sensitive	–	~200 µM	~200 fold	-10 fold
